Like-named read-outs stand apart in the source and are kept apart here.
Tests used:
[1] = cited from earlier work
[2] = Cumulative excretion of radioactivity in urine and feces after injection; type: in vivo; settings: rat
Procedure: These studies were conducted over a five-day period, which represents a decay period of […] for 13.2-hr iodine-123. The cumulative excretion levels in urine and feces were 43.2±1.8% injected dose after two days and […] after five days. The radioactive content of the urine (20.8±2.1%) and feces 22.4±1.1%) were similar after two days, but after five days the cumulative fecal activity (41.4±4.3%) was greater than that for urine (30.5±4.0%).

[3] = Tissue distribution of radioactivity in rats after intravenous administration; type: in vivo; settings: rat; for tissue uptake at 5 min / tissue uptake at 0.5 h / tissue uptake at 1 h / tissue uptake at 2 h / tissue uptake at 6 h / tissue uptake at 24 h / tissue uptake at 120 h: iv
Procedure: In Table I, the tissue distribution of radioactivity in rats after intravenous administration of a bovine serium-albumin complex of the 15-(p-[^125 I]-iodophenyl)-6-Tellurapentadecanoic acid is summarized for various time periods from 5 minutes to 5 days.

[4] = after five days, % injected dose, 7200 min
[5] = after two days, % injected dose, 2880 min

Question: With `CCCCCCCC[123Te]CCCCCCCC(=O)O` [9-[^123m Te] telluraheptadecanoic acid] as the molecule, how does the “Uptake and retention in the myocardium (in words)” value ([1]; Knapp et al 1981) read?
Answer: rapid uptake and prolonged retention in the myocardium

Question: Which “Washout from the myocardium (in words)” value ([1]; background) does the source give for `O=C(O)CCCCCCCCCCCCCCc1ccc([125I])cc1` [15-(p-[^125 I]iodophenyl) pentadecanoic acid] here?
Answer: relatively rapid

Question: What does the source list for `O=C(O)CCCC[Te]CCCCCCCCCc1ccc([125I])cc1` [15-(p-[^125 I]iodophenyl)-6-tellurapentadecanoic acid]?
Answer: Cumulative excretion in urine and feces [2, 4]: 71.6±8.3%; Cumulative fecal activity [2, 4]: 41.4±4.3%; Cumulative urine activity [2, 4]: 30.5±4.0%; Cumulative excretion in urine and feces ([2]; after two days, 2880 min): 43.2±1.8 % injected dose; Radioactive content of the feces [2, 5]: 22.4±1.1%; Radioactive content of the urine [2, 5]: 20.8±2.1%; Heart retention of the maximum uptake observed after 5 minutes ([3]; after 6 hours): 80%; Heart retention of the maximal value ([3]; after 24 hours): 55%; tissue uptake at 5 min ([3]; blood, 5 min, read-out: Distribution of radioactivity, Blood): 0.26 %ID/g; tissue uptake at 0.5 h ([3]; blood, 30 min, read-out: Distribution of radioactivity, Blood): 0.45 %ID/g; tissue uptake at 1 h ([3]; blood, 60 min, read-out: Distribution of radioactivity, Blood): 0.34 %ID/g; tissue uptake at 2 h ([3]; blood, 2 h, read-out: Distribution of radioactivity, Blood): 0.42 %ID/g; tissue uptake at 6 h ([3]; blood, 6 h, read-out: Distribution of radioactivity, Blood): 0.31 %ID/g; tissue uptake at 24 h ([3]; blood, 1 d, read-out: Distribution of radioactivity, Blood): 0.2 %ID/g; tissue uptake at 120 h ([3]; blood, 5 d, read-out: Distribution of radioactivity, Blood): 0.03 %ID/g; tissue uptake at 5 min ([3]; heart, 5 min, read-out: Distribution of radioactivity, Heart): 5.87 %ID/g; tissue uptake at 0.5 h ([3]; heart, 30 min, read-out: Distribution of radioactivity, Heart): 5.43 %ID/g; tissue uptake at 1 h ([3]; heart, 60 min, read-out: Distribution of radioactivity, Heart): 5.55 %ID/g; tissue uptake at 2 h ([3]; heart, 2 h, read-out: Distribution of radioactivity, Heart): 5.85 %ID/g; tissue uptake at 6 h ([3]; heart, 6 h, read-out: Distribution of radioactivity, Heart): 4.78 %ID/g; tissue uptake at 24 h ([3]; heart, 1 d, read-out: Distribution of radioactivity, Heart): 3.25 %ID/g; tissue uptake at 120 h ([3]; heart, 5 d, read-out: Distribution of radioactivity, Heart): 0.94 %ID/g; Blood clearance (in words) ([3]; i.v.): rapid blood clearance; Blood levels (in words) ([3]; i.v.): low blood levels; Deiodination (in words) ([3]; i.v.): minimal deiodination; Myocardial uptake (in words) ([3]; i.v.): rapid and pronounced myocardial uptake; Radioactivity accumulated in thyroid tissue (in words) ([3]; i.v.): Only marginal radioactivity accumulated in the thyroid tissue; Retention of radioactivity in the heart (in words) ([3]; i.v.): Prolonged retention of radioactivity; Distribution of radioactivity, Blood ([3]; i.v., 5 min): 2.00 % injected dose/organ; Distribution of radioactivity, Heart ([3]; i.v., 5 min): 2.98 % injected dose/organ; Distribution of radioactivity, Kidneys ([3]; i.v., 5 min): 1.25 % injected dose/organ; Distribution of radioactivity, Liver ([3]; i.v., 5 min): 50.94 % injected dose/organ; Distribution of radioactivity, Lungs ([3]; i.v., 5 min): 0.97 % injected dose/organ; Distribution of radioactivity, Thyroid ([3]; i.v., 5 min): 0.02 % injected dose/organ; Distribution of radioactivity, Blood ([3]; i.v., 30 min): 3.41 % injected dose/organ; Distribution of radioactivity, Heart ([3]; i.v., 30 min): 2.61 % injected dose/organ; Distribution of radioactivity, Kidneys ([3]; i.v., 30 min): 1.52 % injected dose/organ; Distribution of radioactivity, Liver ([3]; i.v., 30 min): 39.28 % injected dose/organ; Distribution of radioactivity, Lungs ([3]; i.v., 30 min): 1.05 % injected dose/organ; Distribution of radioactivity, Thyroid ([3]; i.v., 30 min): 0.02 % injected dose/organ; Distribution of radioactivity, Blood ([3]; i.v., 60 min): 2.66 % injected dose/organ; Distribution of radioactivity, Heart ([3]; i.v., 60 min): 2.87 % injected dose/organ; Distribution of radioactivity, Kidneys ([3]; i.v., 60 min): 1.73 % injected dose/organ; Distribution of radioactivity, Liver ([3]; i.v., 60 min): 39.03 % injected dose/organ; Distribution of radioactivity, Lungs ([3]; i.v., 60 min): 1.01 % injected dose/organ; Distribution of radioactivity, Thyroid ([3]; i.v., 60 min): 0.02 % injected dose/organ; Distribution of radioactivity, Blood ([3]; i.v., 2 h): 3.01 % injected dose/organ; Distribution of radioactivity, Heart ([3]; i.v., 2 h): 2.87 % injected dose/organ; Distribution of radioactivity, Kidneys ([3]; i.v., 2 h): 1.53 % injected dose/organ; Distribution of radioactivity, Liver ([3]; i.v., 2 h): 44.03 % injected dose/organ; Distribution of radioactivity, Lungs ([3]; i.v., 2 h): 1.29 % injected dose/organ; Distribution of radioactivity, Thyroid ([3]; i.v., 2 h): 0.04 % injected dose/organ; Distribution of radioactivity, Blood ([3]; i.v., 6 h): 2.26 % injected dose/organ; Distribution of radioactivity, Heart ([3]; i.v., 6 h): 2.32 % injected dose/organ; Distribution of radioactivity, Kidneys ([3]; i.v., 6 h): 1.25 % injected dose/organ; Distribution of radioactivity, Liver ([3]; i.v., 6 h): 46.39 % injected dose/organ; Distribution of radioactivity, Lungs ([3]; i.v., 6 h): 0.85 % injected dose/organ; Distribution of radioactivity, Thyroid ([3]; i.v., 6 h): 0.07 % injected dose/organ; Distribution of radioactivity, Blood ([3]; i.v., 1 d): 1.50 % injected dose/organ; Distribution of radioactivity, Heart ([3]; i.v., 1 d): 1.60 % injected dose/organ; Distribution of radioactivity, Kidneys ([3]; i.v., 1 d): 0.81 % injected dose/organ; Distribution of radioactivity, Liver ([3]; i.v., 1 d): 34.28 % injected dose/organ; Distribution of radioactivity, Lungs ([3]; i.v., 1 d): 0.70 % injected dose/organ; Distribution of radioactivity, Thyroid ([3]; i.v., 1 d): 0.26 % injected dose/organ; Distribution of radioactivity, Blood ([3]; i.v., 5 d): 0.23 % injected dose/organ; Distribution of radioactivity, Heart ([3]; i.v., 5 d): 0.45 % injected dose/organ; Distribution of radioactivity, Kidneys ([3]; i.v., 5 d): 0.23 % injected dose/organ; Distribution of radioactivity, Liver ([3]; i.v., 5 d): 6.46 % injected dose/organ; Distribution of radioactivity, Lungs ([3]; i.v., 5 d): 0.24 % injected dose/organ; Distribution of radioactivity, Thyroid ([3]; i.v., 5 d): 0.32 % injected dose/organ; tissue uptake at 5 min ([3]; kidneys, 5 min, read-out: Distribution of radioactivity, Kidneys): 1.02 %ID/g; tissue uptake at 0.5 h ([3]; kidneys, 30 min, read-out: Distribution of radioactivity, Kidneys): 1.25 %ID/g; tissue uptake at 1 h ([3]; kidneys, 60 min, read-out: Distribution of radioactivity, Kidneys): 1.41 %ID/g; tissue uptake at 2 h ([3]; kidneys, 2 h, read-out: Distribution of radioactivity, Kidneys): 1.37 %ID/g; tissue uptake at 6 h ([3]; kidneys, 6 h, read-out: Distribution of radioactivity, Kidneys): 1.12 %ID/g; tissue uptake at 24 h ([3]; kidneys, 1 d, read-out: Distribution of radioactivity, Kidneys): 0.7 %ID/g; tissue uptake at 120 h ([3]; kidneys, 5 d, read-out: Distribution of radioactivity, Kidneys): 0.2 %ID/g; tissue uptake at 5 min ([3]; liver, 5 min, read-out: Distribution of radioactivity, Liver): 9.57 %ID/g; tissue uptake at 0.5 h ([3]; liver, 30 min, read-out: Distribution of radioactivity, Liver): 7.78 %ID/g; tissue uptake at 1 h ([3]; liver, 60 min, read-out: Distribution of radioactivity, Liver): 7.69 %ID/g; tissue uptake at 2 h ([3]; liver, 2 h, read-out: Distribution of radioactivity, Liver): 8.38 %ID/g; tissue uptake at 6 h ([3]; liver, 6 h, read-out: Distribution of radioactivity, Liver): 8.37 %ID/g; tissue uptake at 24 h ([3]; liver, 1 d, read-out: Distribution of radioactivity, Liver): 6.24 %ID/g; tissue uptake at 120 h ([3]; liver, 5 d, read-out: Distribution of radioactivity, Liver): 1.28 %ID/g; tissue uptake at 5 min ([3]; lungs, 5 min, read-out: Distribution of radioactivity, Lungs): 1.14 %ID/g; tissue uptake at 0.5 h ([3]; lungs, 30 min, read-out: Distribution of radioactivity, Lungs): 1.25 %ID/g; tissue uptake at 1 h ([3]; lungs, 60 min, read-out: Distribution of radioactivity, Lungs): 1.48 %ID/g; tissue uptake at 2 h ([3]; lungs, 2 h, read-out: Distribution of radioactivity, Lungs): 1.57 %ID/g; tissue uptake at 6 h ([3]; lungs, 6 h, read-out: Distribution of radioactivity, Lungs): 1.1 %ID/g; tissue uptake at 24 h ([3]; lungs, 1 d, read-out: Distribution of radioactivity, Lungs): 0.89 %ID/g; tissue uptake at 120 h ([3]; lungs, 5 d, read-out: Distribution of radioactivity, Lungs): 0.33 %ID/g; tissue uptake at 5 min ([3]; thyroid, 5 min, read-out: Distribution of radioactivity, Thyroid): 1.52 %ID/g; tissue uptake at 0.5 h ([3]; thyroid, 30 min, read-out: Distribution of radioactivity, Thyroid): 1.51 %ID/g; tissue uptake at 1 h ([3]; thyroid, 60 min, read-out: Distribution of radioactivity, Thyroid): 1.48 %ID/g; tissue uptake at 2 h ([3]; thyroid, 2 h, read-out: Distribution of radioactivity, Thyroid): 3.51 %ID/g; tissue uptake at 6 h ([3]; thyroid, 6 h, read-out: Distribution of radioactivity, Thyroid): 5.89 %ID/g; tissue uptake at 24 h ([3]; thyroid, 1 d, read-out: Distribution of radioactivity, Thyroid): 22.8 %ID/g; tissue uptake at 120 h ([3]; thyroid, 5 d, read-out: Distribution of radioactivity, Thyroid): 30.2 %ID/g; tissue uptake at 5 min ([3]; thyroid, after 5 minutes, read-out: Radioactivity accumulated in the thyroid tissue): 1.52 %ID/g; tissue uptake at 6 h ([3]; thyroid, after 6 hours, read-out: Radioactivity accumulated in the thyroid tissue): 5.84 %ID/g

Question: Which “Concentration of radioactive iodide in the blood (in words)” value ([1]; Machulla et al 1980) does the source give for `O=C(O)CCCCCCCCCCCCCCc1ccc(I)cc1` [15-(p-iodophenyl) pentadecanoic acid] here?
Answer: avoids the high concentration of radioactive iodide in the blood
